Experimental data reported in US20050191359A1, “Water soluble nanoparticles and method for their production” (SoluBest Ltd., priority 2001, published 2005).

Key:
[1] = rats, same oral dose of 150 mg/kg; cited from earlier work
Micrococcus luteus = assay: In vitro microbiological activity, agar petri-dish filter-disc test (zones of bacteriostatic activity versus time); type: cell-based; details: identical concentrations of drug; observed until 216 hours post-application
Protocol: The microbiological activity of various concentrations of water-soluble complexes of clarithromycin prepared in Example 3 was tested on the bacterium Micrococcus luteus, which is sensitive to macrolide antibiotics, and compared to uncomplexed commercial clarithromycin using well-known agar-filled petri-dish tests. Small filter paper cut discs were impregnated with two different solution concentrations (100 or 1,000 μ/ml) of the tested antibiotics. Diameters of the zones pf bacteriostatic activity were measured versus time. […] It was also observed that the difference in microbiological activity for complexed clarithromycin having concentration differences of an order of magnitude between them is vastly greater than the corresponding differences noted with uncomplexed clarithromycin.

[2] = Solubility of erythromycin alone and as nano-dispersion with modified starch; type: physicochemical

solubility of the original drug in water [2] [%] | SMILES | AUC0-24 hours, published data [1] [ng·h/mL] | time until which antibacterial activity continued (Micrococcus luteus)
 | CC[C@H]1OC(=O)[C@H](C)[C@@H](O[C@H]2C[C@@](C)(OC)[C@@H](O)[C@H](C)O2)[C@H](C)[C@@H](O[C@@H]2O[C@H](C)C[C@H](N(C)C)[C@H]2O)[C@](C)(OC)C[C@@H](C)C(=O)[C@H](C)[C@@H](O)[C@]1(C)O [commercial clarithromycin, clarithromycin] | 32540 | approximately 48 hours
0.2 | CC[C@H]1OC(=O)[C@H](C)[C@@H](O[C@H]2C[C@@](C)(OC)[C@@H](O)[C@H](C)O2)[C@H](C)[C@@H](O[C@@H]2O[C@H](C)C[C@H](N(C)C)[C@H]2O)[C@](C)(O)C[C@@H](C)C(=O)[C@H](C)[C@@H](O)[C@]1(C)O [Erythromycin, erythromycin] |  | 
